{
  "source": "patent US20120134921A1",
  "about": "“SOLID COMPOSITIONS COMPRISING 5-AMINOLEVULINIC ACID” (Photocure ASA, priority 2009, published 2012)",
  "origin": "cited, not measured here",
  "key": {"dysplastic lesions": {"test_system": "dysplastic lesions", "details": "sterile solution administered as local probe, chronic colitis rat models"}, "[1]": {"test_system": "pre-malignant conditions in the colon", "details": "enemas, 5-ALA hexyl ester in sterile phosphate buffered saline"}},
  "data": [
    {"smiles": "CCCCCCOC(=O)CCC(=O)CN", "note": "[5-ALA hexyl ester, n-hexyl aminolevulinic acid ester]", "values": [
      {"measurement": "Sensitivity of detection of dysplastic lesions by fluorescence", "setting": "dysplastic lesions", "value": 60, "unit": "%"},
      {"measurement": "Specificity of detection of dysplastic lesions by fluorescence", "setting": "dysplastic lesions", "value": 51, "unit": "%"},
      {"measurement": "More polyps detected by PDD than with white light endoscopic imaging", "setting": "[1]", "value": 28, "unit": "%"}
    ]}
  ]
}
